Results from ChEMBL document CHEMBL4311982, “Discovery of novel, potent, isosteviol-based antithrombotic agents” (Eur J Med Chem, 2019).

What was measured:
[1] = Cmax in Wistar rat at 22 umol/kg, po measured upto 24 hrs by LC-MS/MS analysis; assay type: ADME, organism-based; parameters: dose 22 umol/kg, route oral; settings: in vivo
Coagulation factor X = Coagulation factor X (Homo sapiens, UniProt P00742); experiment: Inhibition of human activated Factor X using S-2765 as substrate incubated for 15 mins followed by substrate addition and measured after 1 hr by chromogenic assay
Chain of Coagulation factor X (P00742 41-179 limits assumed): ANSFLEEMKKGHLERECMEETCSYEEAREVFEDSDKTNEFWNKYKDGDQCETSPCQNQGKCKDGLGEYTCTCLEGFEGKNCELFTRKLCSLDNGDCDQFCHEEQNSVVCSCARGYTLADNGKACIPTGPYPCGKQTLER
Chain of Coagulation factor X (P00742 235-488 limits assumed): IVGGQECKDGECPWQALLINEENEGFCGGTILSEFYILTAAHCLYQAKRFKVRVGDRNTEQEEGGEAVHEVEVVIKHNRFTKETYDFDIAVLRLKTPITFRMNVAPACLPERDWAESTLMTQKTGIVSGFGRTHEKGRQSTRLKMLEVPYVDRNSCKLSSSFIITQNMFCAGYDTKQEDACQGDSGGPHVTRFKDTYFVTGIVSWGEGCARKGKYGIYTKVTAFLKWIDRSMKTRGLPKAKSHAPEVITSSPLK

Coagulation factor XI = Coagulation factor XI (Homo sapiens, UniProt P03951); experiment: Inhibition of human activated Factor XI using S-2366 as substrate incubated for 15 mins followed by substrate addition and measured after 1 hr by chromogenic assay
Chain of Coagulation factor XI (P03951 19-387 limits assumed): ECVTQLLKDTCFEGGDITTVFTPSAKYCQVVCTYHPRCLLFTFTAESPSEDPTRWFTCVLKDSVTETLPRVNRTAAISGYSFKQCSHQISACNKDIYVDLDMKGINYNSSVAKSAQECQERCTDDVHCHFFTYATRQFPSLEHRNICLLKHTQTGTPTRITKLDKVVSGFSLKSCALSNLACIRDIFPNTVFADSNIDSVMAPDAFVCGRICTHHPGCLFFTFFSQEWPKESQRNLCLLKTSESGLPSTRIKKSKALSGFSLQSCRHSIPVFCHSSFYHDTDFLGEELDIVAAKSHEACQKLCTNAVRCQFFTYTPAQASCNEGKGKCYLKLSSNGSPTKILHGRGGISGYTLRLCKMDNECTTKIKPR
Chain of Coagulation factor XI (P03951 388-625 limits assumed): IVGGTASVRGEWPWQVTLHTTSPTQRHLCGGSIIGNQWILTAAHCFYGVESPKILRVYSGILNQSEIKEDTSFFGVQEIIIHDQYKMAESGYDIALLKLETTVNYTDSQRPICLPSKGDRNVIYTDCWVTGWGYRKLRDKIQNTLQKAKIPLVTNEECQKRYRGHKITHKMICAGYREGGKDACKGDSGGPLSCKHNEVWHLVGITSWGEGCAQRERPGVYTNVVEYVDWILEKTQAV

Coagulation factor VII = molecular target: T1, Coagulation factor VII (Homo sapiens, UniProt P08709); experiment: Inhibition of human activated Factor VII using S-2288 as substrate incubated for 15 mins followed by substrate addition and measured after 1 hr by chromogenic assay
T1 sequence (P08709 whole entry): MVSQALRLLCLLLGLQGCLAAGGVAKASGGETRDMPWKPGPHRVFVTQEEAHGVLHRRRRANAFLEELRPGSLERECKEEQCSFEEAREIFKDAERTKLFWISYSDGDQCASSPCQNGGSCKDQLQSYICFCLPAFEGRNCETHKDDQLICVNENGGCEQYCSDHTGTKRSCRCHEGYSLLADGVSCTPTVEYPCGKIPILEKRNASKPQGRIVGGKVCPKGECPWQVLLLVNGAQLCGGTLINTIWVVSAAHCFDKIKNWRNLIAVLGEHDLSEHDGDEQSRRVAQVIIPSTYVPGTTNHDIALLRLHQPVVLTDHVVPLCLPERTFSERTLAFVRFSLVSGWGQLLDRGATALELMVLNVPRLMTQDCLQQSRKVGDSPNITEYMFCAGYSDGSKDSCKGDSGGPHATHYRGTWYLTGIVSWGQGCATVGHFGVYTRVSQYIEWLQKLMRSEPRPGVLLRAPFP

Coagulation factor XII = molecular target: T2, Coagulation factor XII (Homo sapiens, UniProt P00748); experiment: Inhibition of human activated Factor XII using spectrozyme F XIIa as substrate incubated for 15 mins followed by substrate addition and measured after 1 hr by chromogenic assay
T2 sequence (P00748 whole entry): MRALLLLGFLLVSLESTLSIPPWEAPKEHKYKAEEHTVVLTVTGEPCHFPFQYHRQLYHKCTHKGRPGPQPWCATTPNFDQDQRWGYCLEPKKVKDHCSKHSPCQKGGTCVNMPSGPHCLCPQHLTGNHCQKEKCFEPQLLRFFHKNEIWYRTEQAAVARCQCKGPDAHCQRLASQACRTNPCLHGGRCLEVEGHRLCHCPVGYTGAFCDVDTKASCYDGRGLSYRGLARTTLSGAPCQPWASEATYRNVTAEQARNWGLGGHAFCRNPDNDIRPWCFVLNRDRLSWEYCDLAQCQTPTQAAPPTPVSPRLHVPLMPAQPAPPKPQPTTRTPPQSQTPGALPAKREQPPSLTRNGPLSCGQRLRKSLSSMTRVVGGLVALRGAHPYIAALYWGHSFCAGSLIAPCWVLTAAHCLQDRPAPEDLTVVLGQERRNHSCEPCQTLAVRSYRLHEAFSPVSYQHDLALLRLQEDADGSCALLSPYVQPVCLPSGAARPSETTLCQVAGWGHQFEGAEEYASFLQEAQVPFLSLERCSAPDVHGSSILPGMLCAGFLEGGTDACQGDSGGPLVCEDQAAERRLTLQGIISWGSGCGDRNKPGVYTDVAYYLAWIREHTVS

Coagulation factor IX = Coagulation factor IX (Homo sapiens, UniProt P00740); experiment: Inhibition of human activated Factor IX using spectrozyme F IXa as substrate incubated for 15 mins followed by substrate addition and measured after 1 hr by chromogenic assay
Chain of Coagulation factor IX (P00740 47-191 limits assumed): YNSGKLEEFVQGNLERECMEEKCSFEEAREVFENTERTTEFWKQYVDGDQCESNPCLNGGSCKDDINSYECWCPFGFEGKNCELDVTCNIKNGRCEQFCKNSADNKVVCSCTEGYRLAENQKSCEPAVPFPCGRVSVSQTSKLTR
Chain of Coagulation factor IX (P00740 227-461 limits assumed): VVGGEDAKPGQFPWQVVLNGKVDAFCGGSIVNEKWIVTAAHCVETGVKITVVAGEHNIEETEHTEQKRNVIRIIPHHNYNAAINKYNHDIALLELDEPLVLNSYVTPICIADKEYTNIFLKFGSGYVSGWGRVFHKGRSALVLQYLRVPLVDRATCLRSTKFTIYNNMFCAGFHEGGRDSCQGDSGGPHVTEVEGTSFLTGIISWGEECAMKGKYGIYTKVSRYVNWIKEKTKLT

Trypsin = Trypsin (Homo sapiens, UniProt P07477+P07478+P35030); experiment: Inhibition of human trypsin using S-2222 as substrate incubated for 15 mins followed by substrate addition and measured after 1 hr by chromogenic assay; assay type: protein assay
[2] = molecular target: Tissue-type plasminogen activator (Homo sapiens, UniProt P00750); experiment: Inhibition of human tPA using […] tPA substrate incubated for 15 mins followed by substrate addition and measured after 1 hr by chromogenic assay
Chain of Tissue-type plasminogen activator (P00750 whole entry): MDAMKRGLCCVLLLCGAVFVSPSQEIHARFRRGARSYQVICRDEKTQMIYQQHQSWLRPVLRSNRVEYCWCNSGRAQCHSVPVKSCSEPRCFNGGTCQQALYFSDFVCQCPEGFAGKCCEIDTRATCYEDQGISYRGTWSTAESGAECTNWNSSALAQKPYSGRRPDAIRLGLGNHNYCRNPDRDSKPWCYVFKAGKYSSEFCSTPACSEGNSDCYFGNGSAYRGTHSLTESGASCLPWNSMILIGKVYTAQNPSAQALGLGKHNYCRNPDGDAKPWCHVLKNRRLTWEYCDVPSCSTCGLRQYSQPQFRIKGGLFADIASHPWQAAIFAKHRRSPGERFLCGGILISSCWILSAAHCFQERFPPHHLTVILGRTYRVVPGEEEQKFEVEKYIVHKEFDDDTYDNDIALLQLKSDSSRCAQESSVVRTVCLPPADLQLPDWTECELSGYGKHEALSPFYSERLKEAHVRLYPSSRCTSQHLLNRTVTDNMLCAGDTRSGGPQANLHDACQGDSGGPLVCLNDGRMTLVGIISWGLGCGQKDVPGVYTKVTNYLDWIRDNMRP

[3] = molecular target: Urokinase-type plasminogen activator (Homo sapiens, UniProt P00749); experiment: Inhibition of human uPA using […] uPA substrate incubated for 15 mins followed by substrate addition and measured after 1 hr by chromogenic assay
[4] = Half life in Wistar rat at 22 umol/kg, po measured upto 24 hrs by LC-MS/MS analysis; assay type: ADME, organism-based; settings: in vivo
[5] = AUC (0 to infinity) in Wistar rat at 22 umol/kg, po measured upto 24 hrs by LC-MS/MS analysis; assay type: ADME, organism-based; parameters: dose 22 umol/kg, time infinity, route oral; settings: in vivo
[6] = MRT in Wistar rat at 22 umol/kg, po measured upto 24 hrs by LC-MS/MS analysis; assay type: ADME, organism-based; settings: in vivo
[7] = Clearance in Wistar rat at 22 umol/kg, po measured upto 24 hrs by LC-MS/MS analysis; assay type: ADME, organism-based; settings: in vivo
[8] = Volume of distribution in Wistar rat at 22 umol/kg, po measured upto 24 hrs by LC-MS/MS analysis; assay type: ADME, organism-based; settings: in vivo
[9] = Oral bioavailability in Wistar rat at 22 umol/kg measured upto 24 hrs by LC-MS/MS analysis; assay type: ADME, organism-based; settings: in vivo
[10] = Half life in Wistar rat at 6.6 umol/kg, iv measured upto 24 hrs by LC-MS/MS analysis; assay type: ADME, organism-based; settings: in vivo
[11] = AUC (0 to infinity) in Wistar rat at 6.6 umol/kg, iv measured upto 24 hrs by LC-MS/MS analysis; assay type: ADME, organism-based; parameters: dose 6.6 umol/kg, time infinity, route intravenous; settings: in vivo
[12] = MRT in Wistar rat at 6.6 umol/kg, iv measured upto 24 hrs by LC-MS/MS analysis; assay type: ADME, organism-based; settings: in vivo
[13] = Clearance in Wistar rat at 6.6 umol/kg, iv measured upto 24 hrs by LC-MS/MS analysis; assay type: ADME, organism-based; settings: in vivo
[14] = Volume of distribution in Wistar rat at 6.6 umol/kg, iv measured upto 24 hrs by LC-MS/MS analysis; assay type: ADME, organism-based; settings: in vivo
Rattus norvegicus [15] = species: Rattus norvegicus; also: test concentration or dose not given here
Rattus norvegicus [16] = species: Rattus norvegicus; remark: listed apart in the source; also: test concentration or dose not given here
Rattus norvegicus [17] = species: Rattus norvegicus; remark: listed apart in the source; also: test concentration or dose not given here
Plasma kallikrein = Plasma kallikrein (Homo sapiens, UniProt P03952); experiment: Inhibition of human kallikrein using S-2302 as substrate incubated for 15 mins followed by substrate addition and measured after 1 hr by chromogenic assay
Chain of Plasma kallikrein (P03952 20-390 limits assumed): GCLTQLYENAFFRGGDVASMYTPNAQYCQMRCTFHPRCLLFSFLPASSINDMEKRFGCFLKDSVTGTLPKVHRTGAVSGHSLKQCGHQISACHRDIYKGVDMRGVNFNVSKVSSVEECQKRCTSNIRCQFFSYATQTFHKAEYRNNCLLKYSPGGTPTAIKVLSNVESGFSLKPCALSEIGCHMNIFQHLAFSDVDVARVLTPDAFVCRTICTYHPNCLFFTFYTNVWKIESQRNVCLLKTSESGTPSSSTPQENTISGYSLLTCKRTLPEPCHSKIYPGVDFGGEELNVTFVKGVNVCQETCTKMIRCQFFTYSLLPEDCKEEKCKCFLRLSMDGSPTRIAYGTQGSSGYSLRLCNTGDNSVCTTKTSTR
Chain of Plasma kallikrein (P03952 391-638 limits assumed): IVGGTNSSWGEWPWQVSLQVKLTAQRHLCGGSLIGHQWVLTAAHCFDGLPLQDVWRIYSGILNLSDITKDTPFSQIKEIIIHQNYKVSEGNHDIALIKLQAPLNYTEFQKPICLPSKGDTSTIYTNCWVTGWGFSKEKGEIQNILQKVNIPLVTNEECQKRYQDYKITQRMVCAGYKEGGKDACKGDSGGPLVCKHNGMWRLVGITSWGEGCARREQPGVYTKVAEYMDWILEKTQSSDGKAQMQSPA

[18] = molecular target: Chymotrypsin (Rattus norvegicus); experiment: Inhibition of rat chymotrypsin using S-2586 as substrate incubated for 15 mins followed by substrate addition and measured after 1 hr by chromogenic assay

SMILES	Cmax [1] [ng/mL]	Ki (Coagulation factor X) [µM]	Ki (Coagulation factor XI) [µM]	Ki (Coagulation factor VII) [µM]	Ki (Coagulation factor XII) [µM]	Ki (Coagulation factor IX) [µM]	Ki (Trypsin) [µM]	Ki [2] [µM]	Ki [3] [µM]	half-life [4] [h]	AUC(0-inf) [5] [ng·h/mL]	MRT [6] [h]	CL/F [7] [mL/min]	Vd [8] [L]	bioavailability [9] [%]	half-life [10] [h]	AUC(0-inf) [11] [ng·h/mL]	MRT [12] [h]	clearance [13] [mL/min]	Vd [14] [L]	also measured
CCOC(=O)[C@]1(C)CCC[C@@]2(C)[C@@H]3CC[C@@]4(C)C[C@]3(CC[C@@H]21)C/C4=N\OCc1ccsc1	1250	0.015	1.7	11.6	9.29	19.7	2.13	3.53	4.43	3.9	5530	4.1	30	10.2	48.6	3.2	3410	4.6	15	4	PT (Rattus norvegicus [15]): 19.1 s; APTT (Rattus norvegicus [16]): 21.3 s; TT (Rattus norvegicus [17]): 25.5 min; Ki (Plasma kallikrein): 2.21 µM; Ki [18]: 16.262 µM
CCOC(=O)[C@]1(C)CCC[C@@]2(C)[C@@H]3CC[C@@]4(C)C[C@]3(CC[C@@H]21)C/C4=N\OCC1(C)COC1	728	0.028	1.94	7.99	7.64	4.76	0.331	2.83	2.03	4.2	4810	5.6	35	12.5	42.7	3.4	3380	4.9	15	4.3	PT (Rattus norvegicus [15]): 18.2 s; APTT (Rattus norvegicus [16]): 20.6 s; TT (Rattus norvegicus [17]): 22 min; Ki (Plasma kallikrein): 0.277 µM; Ki [18]: 12.378 µM
